Assay results published in patent publication US8952024B2, “Herbicidal pyrimidone derivatives” (E I du Pont de Nemours and Company, priority 2009, dated 2015).
Like-named read-outs stand apart in the source and are kept apart here.

Columns and labels:
Assay type in all cases: in vivo
[1] = system: giant foxtail (Setaria faberii); assay: Test A pre-/postemergence plant response; details: for pest or weed control at 125 g/ha / pest or weed control at 500 g/ha: Setaria faberi, 240 h
Method in brief: (§1)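 Injury scores (0, no effect; 100, complete control) come from visual comparison with untreated controls roughly ten days post-treatment. Test chemicals in a surfactant-containing non-phytotoxic solvent were applied as a directed soil spray preemergence and to one- to two-leaf seedlings postemergence.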

[2] = system: wheat (Triticum aestivum); assay: Test A pre-/postemergence plant response; details: for plant injury at 125 g/ha / plant injury at 500 g/ha: Triticum aestivum, 240 h
Method in brief: as §1

[3] = system: velvetleaf (Abutilon theophrasti); assay: Test A pre-/postemergence plant response; details: for pest or weed control at 125 g/ha / pest or weed control at 500 g/ha: Abutilon theophrasti, 240 h
Method in brief: as §1

[4] = system: large crabgrass (Digitaria sanguinalis); assay: Test A pre-/postemergence plant response; details: for pest or weed control at 125 g/ha / pest or weed control at 500 g/ha: Digitaria sanguinalis, 240 h
Method in brief: as §1

corn (Zea mays) = assay: Test A pre-/postemergence plant response
Method in brief: as §1

[5] = system: barnyardgrass (Echinochloa crus-galli); assay: Test A pre-/postemergence plant response; details: for pest or weed control at 125 g/ha / pest or weed control at 500 g/ha: Echinochloa crus-galli, 240 h
Method in brief: as §1

[6] = system: winter barley (Hordeum vulgare); assay: Test B postemergence plant response; details: for Barley plant response rating (0 to 100 scale): 62 g ai/ha, 0 is no effect, 13 to 15 days
From the text: (§2) At the same time, plants selected from these crop and weed species and also winter barley (Hordeum vulgare), canarygrass (Phalaris minor), chickweed (Stellaria media) and windgrass (Apera spica-venti) were planted in pots containing Redi-Earth® planting medium (Scotts Company, 14111 Scottslawn Road, Marysville, Ohio 43041) comprising spaghnum peat moss, vermiculite, wetting agent and starter nutrients and treated with postemergence applications of some of the test chemicals formulated in the same manner. Plants ranged in height from 2 to 18 cm (1- to 4-leaf stage) for postemergence treatments.
(§3) Treated plants and controls were maintained in a greenhouse for 13 to 15 days, after which time all treated plants were visually evaluated and compared to controls. Plant response ratings, summarized in Table B, are based on a scale of 0 to 100 where 0 is no effect and 100 is complete control. A dash (-) response means no test result.

[7] = system: canarygrass (Phalaris minor); assay: Test B postemergence plant response
From the text: as §2, §3

[8] = system: chickweed (Stellaria media); assay: Test B postemergence plant response
From the text: as §2, §3

[9] = system: windgrass (Apera spica-venti); assay: Test B postemergence plant response
From the text: as §2, §3

[10] = Postemergence, 125 g ai/ha, 0 to 100 scale where 0 is no effect and 100 is complete control
[11] = Postemergence, 500 g ai/ha, visual injury, 0 to 100 scale (0 no effect, 100 complete control), approx. ten days
[12] = Preemergence, 125 g ai/ha, 0 to 100 scale, 0 = no effect, 100 = complete control
[13] = Preemergence, 500 g ai/ha, 0 to 100 scale, 0 = no effect, 100 = complete control
[14] = 16 g ai/ha, Postemergence, 0 to 100 scale
[15] = postemergence, 100 is complete control
[16] = Postemergence, 31 g ai/ha, 0 to 100 scale (0 no effect, 100 complete control)
[17] = Postemergence, 125 g ai/ha, scale 0 to 100 (0 no effect, 100 complete control)
[18] = Postemergence, 125 g ai/ha, visual injury, 0 to 100 scale (0 no effect, 100 complete control), approx. ten days
[19] = Postemergence, 500 g ai/ha, 0 to 100 scale, 0 = no effect, 100 = complete control, approx. ten days
[20] = Preemergence, 500 g ai/ha, visual injury, 0 to 100 scale (0 no effect, 100 complete control), approx. ten days
[21] = 31 g ai/ha, postemergence, scale 0 to 100, 0 is no effect, 100 is complete control
[22] = Postemergence, 125 g ai/ha, visual rating after 13 to 15 days, scale 0 (no effect) to 100 (complete control)
[23] = Postemergence, 250 g ai/ha, scale 0 to 100 (0 no effect, 100 complete control)
[24] = 62 g ai/ha, postemergence, 0 is no effect, 100 is complete control, 13 to 15 days

O=C1CCCC(O)=C1C(=O)c1cnc(-c2ccccc2)n(C2CC[S+]([O-])CC2)c1=O (mixture of isomers) [Compound 169, 5-[(2-hydroxy-6-oxo-1-cyclohexen-1-yl)carbonyl]-2-phenyl-3-(trans/cis-tetrahydro-1-oxido-2H-thiopyran-4-yl)-4(3H)-pyrimidinone]
Plant response rating, Foxtail, Giant [1, 10]: 80 | Foxtail, Giant plant response rating [1, 11]: 100 | Plant response rating, Foxtail, Giant [1, 12]: 40 | Plant response rating, Foxtail, Giant [1, 13]: 50 | Plant response rating, Wheat [2, 10]: 20 | Wheat plant response rating [2, 11]: 20 | Plant response rating, Wheat [2, 12]: 0 | Plant response rating, Wheat [2, 13]: 0 | Plant response rating, Velvetleaf [3, 10]: 100 | Velvetleaf plant response rating [3, 11]: 100 | Plant response rating, Velvetleaf [3, 12]: 20 | Plant response rating, Velvetleaf [3, 13]: 50 | Plant response rating, Crabgrass, Large [4, 10]: 90 | Crabgrass, Large plant response rating [4, 11]: 100 | Plant response rating, Crabgrass, Large [4, 12]: 40 | Plant response rating, Crabgrass, Large [4, 13]: 40 | Plant response rating, Corn (corn (Zea mays); [10]): 0 | Corn plant response rating (corn (Zea mays); [11]): 30 | Plant response rating, Corn (corn (Zea mays); [12]): 0 | Plant response rating, Corn (corn (Zea mays); [13]): 20 | Plant response rating, Barnyardgrass [5, 10]: 90 | Barnyardgrass plant response rating [5, 11]: 100 | Plant response rating, Barnyardgrass [5, 12]: 0 | Plant response rating, Barnyardgrass [5, 13]: 50 | Plant response rating, Barley [6, 14]: 0 | Barley plant response rating (0 to 100 scale) [6, 15]: 0 | Plant response rating, Barley [6, 16]: 0 | Plant response rating, Barley [6, 17]: 0 | Plant response rating, Canarygrass [7, 14]: 5 | Plant response rating, Canarygrass [7, 16]: 40 | Plant response rating, Canarygrass [7, 17]: 80 | Plant response rating, Chickweed [8, 14]: 90 | Plant response rating, Chickweed [8, 16]: 100 | Plant response rating, Chickweed [8, 17]: 100 | Plant response rating, Windgrass [9, 14]: 5 | Plant response rating, Windgrass [9, 16]: 15 | Plant response rating, Windgrass [9, 17]: 55

O=C1CCCC(O)=C1C(=O)c1cnc(-c2ccc(Br)cc2)n(-c2ccccc2)c1=O [Compound 70]
Foxtail, Giant plant response rating [1, 18]: 50 | Plant response rating, Foxtail, Giant [1, 19]: 90 | Plant response rating, Foxtail, Giant [1, 12]: 30 | Plant response rating, Foxtail, Giant [1, 20]: 60 | Wheat plant response rating [2, 18]: 0 | Plant response rating, Wheat [2, 19]: 0 | Plant response rating, Wheat [2, 12]: 0 | Plant response rating, Wheat [2, 20]: 0 | Velvetleaf plant response rating [3, 18]: 100 | Plant response rating, Velvetleaf [3, 19]: 100 | Plant response rating, Velvetleaf [3, 12]: 70 | Plant response rating, Velvetleaf [3, 20]: 80 | Crabgrass, Large plant response rating [4, 18]: 50 | Plant response rating, Crabgrass, Large [4, 19]: 90 | Plant response rating, Crabgrass, Large [4, 12]: 40 | Plant response rating, Crabgrass, Large [4, 20]: 90 | Corn plant response rating (corn (Zea mays); [18]): 0 | Plant response rating, Corn (corn (Zea mays); [19]): 20 | Plant response rating, Corn (corn (Zea mays); [12]): 0 | Plant response rating, Corn (corn (Zea mays); [20]): 0 | Barnyardgrass plant response rating [5, 18]: 50 | Plant response rating, Barnyardgrass [5, 19]: 80 | Plant response rating, Barnyardgrass [5, 12]: 0 | Plant response rating, Barnyardgrass [5, 20]: 10 | Plant response rating, Barley [6, 21]: 10 | Barley plant response rating (0 to 100 scale) [6, 15]: 30 | Plant response rating, Barley [6, 22]: 90 | Plant response rating, Barley [6, 23]: 90 | Plant response rating, Canarygrass [7, 21]: 50 | Canarygrass plant response rating (0 to 100 scale) [7, 24]: 80 | Plant response rating, Canarygrass [7, 22]: 85 | Plant response rating, Canarygrass [7, 23]: 98 | Plant response rating, Chickweed [8, 21]: 80 | Chickweed plant response rating (0 to 100 scale) [8, 24]: 90 | Plant response rating, Chickweed [8, 22]: 98 | Plant response rating, Chickweed [8, 23]: 100 | Plant response rating, Windgrass [9, 21]: 80 | Windgrass plant response rating (0 to 100 scale) [9, 24]: 85 | Plant response rating, Windgrass [9, 22]: 90 | Plant response rating, Windgrass [9, 23]: 100

O=C(c1cnoc1C1CC1)c1cnc(-c2ccccc2)n(-c2ccccc2)c1=O [Compound 223, 5-[(5-cyclopropyl-4-isoxazolyl)-carbonyl]-2,3-diphenyl-4(3H)-pyrimidinone]
pest or weed control at 125 g/ha ([1]; post-emergence, Postemergence, 125 g ai/ha, 0 to 100 scale where 0 is no effect and 100 is complete control, read-out: Plant response rating, Foxtail, Giant): 0% | pest or weed control at 500 g/ha ([1]; post-emergence, Postemergence, 500 g ai/ha, visual injury, 0 to 100 scale (0 no effect, 100 complete control), approx. ten days, read-out: Foxtail, Giant plant response rating): 70% | pest or weed control at 125 g/ha ([1]; pre-emergence, Preemergence, 125 g ai/ha, 0 to 100 scale, 0 = no effect, 100 = complete control, read-out: Plant response rating, Foxtail, Giant): 30% | pest or weed control at 500 g/ha ([1]; pre-emergence, Preemergence, 500 g ai/ha, 0 to 100 scale, 0 = no effect, 100 = complete control, read-out: Plant response rating, Foxtail, Giant): 90% | plant injury at 125 g/ha ([2]; post-emergence, Postemergence, 125 g ai/ha, 0 to 100 scale where 0 is no effect and 100 is complete control, read-out: Plant response rating, Wheat): 0% | plant injury at 500 g/ha ([2]; post-emergence, Postemergence, 500 g ai/ha, visual injury, 0 to 100 scale (0 no effect, 100 complete control), approx. ten days, read-out: Wheat plant response rating): 0% | plant injury at 125 g/ha ([2]; pre-emergence, Preemergence, 125 g ai/ha, 0 to 100 scale, 0 = no effect, 100 = complete control, read-out: Plant response rating, Wheat): 0% | plant injury at 500 g/ha ([2]; pre-emergence, Preemergence, 500 g ai/ha, 0 to 100 scale, 0 = no effect, 100 = complete control, read-out: Plant response rating, Wheat): 0% | pest or weed control at 125 g/ha ([3]; post-emergence, Postemergence, 125 g ai/ha, 0 to 100 scale where 0 is no effect and 100 is complete control, read-out: Plant response rating, Velvetleaf): 50% | pest or weed control at 500 g/ha ([3]; post-emergence, Postemergence, 500 g ai/ha, visual injury, 0 to 100 scale (0 no effect, 100 complete control), approx. ten days, read-out: Velvetleaf plant response rating): 80% | pest or weed control at 125 g/ha ([3]; pre-emergence, Preemergence, 125 g ai/ha, 0 to 100 scale, 0 = no effect, 100 = complete control, read-out: Plant response rating, Velvetleaf): 0% | pest or weed control at 500 g/ha ([3]; pre-emergence, Preemergence, 500 g ai/ha, 0 to 100 scale, 0 = no effect, 100 = complete control, read-out: Plant response rating, Velvetleaf): 60% | pest or weed control at 125 g/ha ([4]; post-emergence, Postemergence, 125 g ai/ha, 0 to 100 scale where 0 is no effect and 100 is complete control, read-out: Plant response rating, Crabgrass, Large): 0% | pest or weed control at 500 g/ha ([4]; post-emergence, Postemergence, 500 g ai/ha, visual injury, 0 to 100 scale (0 no effect, 100 complete control), approx. ten days, read-out: Crabgrass, Large plant response rating): 60% | pest or weed control at 125 g/ha ([4]; pre-emergence, Preemergence, 125 g ai/ha, 0 to 100 scale, 0 = no effect, 100 = complete control, read-out: Plant response rating, Crabgrass, Large): 30% | pest or weed control at 500 g/ha ([4]; pre-emergence, Preemergence, 500 g ai/ha, 0 to 100 scale, 0 = no effect, 100 = complete control, read-out: Plant response rating, Crabgrass, Large): 80% | Corn plant response rating (crop injury, 0 = no effect, 100 = complete kill) at 125 g/ha (corn (Zea mays); Zea mays, post-emergence, 240 h, Postemergence, 125 g ai/ha, 0 to 100 scale where 0 is no effect and 100 is complete control): 0% | plant injury at 500 g/ha (corn (Zea mays); Zea mays, post-emergence, 240 h, Postemergence, 500 g ai/ha, visual injury, 0 to 100 scale (0 no effect, 100 complete control), approx. ten days, read-out: Corn plant response rating): 20% | Corn plant response rating (crop injury, 0 = no effect, 100 = complete kill) at 125 g/ha (corn (Zea mays); Zea mays, pre-emergence, 240 h, Preemergence, 125 g ai/ha, 0 to 100 scale, 0 = no effect, 100 = complete control): 0% | Corn plant response rating (crop injury, 0 = no effect, 100 = complete kill) at 500 g/ha (corn (Zea mays); Zea mays, pre-emergence, 240 h, Preemergence, 500 g ai/ha, 0 to 100 scale, 0 = no effect, 100 = complete control): 0% | pest or weed control at 125 g/ha ([5]; post-emergence, Postemergence, 125 g ai/ha, 0 to 100 scale where 0 is no effect and 100 is complete control, read-out: Plant response rating, Barnyardgrass): 0% | pest or weed control at 500 g/ha ([5]; post-emergence, Postemergence, 500 g ai/ha, visual injury, 0 to 100 scale (0 no effect, 100 complete control), approx. ten days, read-out: Barnyardgrass plant response rating): 50% | pest or weed control at 125 g/ha ([5]; pre-emergence, Preemergence, 125 g ai/ha, 0 to 100 scale, 0 = no effect, 100 = complete control, read-out: Plant response rating, Barnyardgrass): 0% | pest or weed control at 500 g/ha ([5]; pre-emergence, Preemergence, 500 g ai/ha, 0 to 100 scale, 0 = no effect, 100 = complete control, read-out: Plant response rating, Barnyardgrass): 70%
